Read-outs that look alike come from different tables or passages of the source.
What was measured:
[1] = molecular target: CYP3A4 (Homo sapiens, UniProt P08684); assay: Effect of DMSO on CYP activity in human liver microsomes; type: in vitro ADME; conditions: for activity loss: percent decrease of metabolite formation
[2] = molecular target: T1, CYP2C19 (Homo sapiens, UniProt P33261); assay: as above; type: in vitro ADME; conditions: for activity loss: percent decrease of metabolite formation
[3] = molecular target: T2, CYP2C8 (Homo sapiens, UniProt P10632); assay: as above; type: in vitro ADME
T2 sequence (P10632 1-490): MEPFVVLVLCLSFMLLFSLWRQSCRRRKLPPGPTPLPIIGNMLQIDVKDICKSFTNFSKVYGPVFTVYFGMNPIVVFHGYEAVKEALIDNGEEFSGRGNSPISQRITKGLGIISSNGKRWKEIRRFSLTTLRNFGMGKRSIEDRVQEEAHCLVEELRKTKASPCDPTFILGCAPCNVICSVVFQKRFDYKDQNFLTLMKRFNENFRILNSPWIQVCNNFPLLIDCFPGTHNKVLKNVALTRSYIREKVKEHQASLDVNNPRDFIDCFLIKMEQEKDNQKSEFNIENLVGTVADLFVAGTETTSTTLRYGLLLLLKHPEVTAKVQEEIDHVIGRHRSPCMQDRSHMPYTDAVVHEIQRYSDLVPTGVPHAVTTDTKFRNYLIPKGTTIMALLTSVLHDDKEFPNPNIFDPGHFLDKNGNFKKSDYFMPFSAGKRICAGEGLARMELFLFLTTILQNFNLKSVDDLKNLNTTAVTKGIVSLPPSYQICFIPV

[4] = molecular target: CYP2D6 (Homo sapiens, UniProt P10635); assay: as above; type: in vitro ADME
CYP2D6, sequence (P10635 whole entry): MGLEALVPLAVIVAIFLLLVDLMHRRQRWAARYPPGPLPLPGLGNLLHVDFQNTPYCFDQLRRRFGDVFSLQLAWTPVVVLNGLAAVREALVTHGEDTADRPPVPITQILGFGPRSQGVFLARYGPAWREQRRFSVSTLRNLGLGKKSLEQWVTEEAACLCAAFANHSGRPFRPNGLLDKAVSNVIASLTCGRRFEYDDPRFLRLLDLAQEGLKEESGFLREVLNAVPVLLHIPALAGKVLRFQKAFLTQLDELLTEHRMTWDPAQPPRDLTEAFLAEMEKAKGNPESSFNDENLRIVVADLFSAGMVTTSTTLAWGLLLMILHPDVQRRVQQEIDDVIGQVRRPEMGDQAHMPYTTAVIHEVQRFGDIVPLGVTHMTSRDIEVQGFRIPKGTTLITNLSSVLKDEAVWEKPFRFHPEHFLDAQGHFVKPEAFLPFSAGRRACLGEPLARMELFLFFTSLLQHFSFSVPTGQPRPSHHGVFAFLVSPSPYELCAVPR

[5] = molecular target: T3, CYP1A2 (Homo sapiens, UniProt P05177); assay: as above; type: in vitro ADME
T3 sequence (P05177 1-516): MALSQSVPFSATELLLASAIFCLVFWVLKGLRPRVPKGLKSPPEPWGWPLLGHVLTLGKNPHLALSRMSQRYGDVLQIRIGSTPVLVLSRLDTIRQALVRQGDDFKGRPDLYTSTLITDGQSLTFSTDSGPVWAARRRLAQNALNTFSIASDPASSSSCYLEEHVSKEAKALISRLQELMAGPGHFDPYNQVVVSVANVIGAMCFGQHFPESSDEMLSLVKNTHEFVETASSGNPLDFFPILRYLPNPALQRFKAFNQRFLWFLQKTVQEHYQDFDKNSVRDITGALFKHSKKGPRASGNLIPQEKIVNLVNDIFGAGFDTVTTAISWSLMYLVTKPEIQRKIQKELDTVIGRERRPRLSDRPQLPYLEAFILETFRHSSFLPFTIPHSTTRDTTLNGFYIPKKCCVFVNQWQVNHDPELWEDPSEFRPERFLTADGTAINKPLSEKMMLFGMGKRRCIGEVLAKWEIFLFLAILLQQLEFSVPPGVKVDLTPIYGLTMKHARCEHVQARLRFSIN

[6] = molecular target: T1, CYP2C19; conditions: literature value, cited from earlier work
[7] = molecular target: T1, CYP2C19; assay: CYP inhibition assay in human liver microsomes, S-mephenytoin probe; type: in vitro ADME; conditions: IC50 calculated without SC, Single, pooled human liver microsomes, analyte-to-IS peak area ratio
[8] = 0.5% DMSO, concentration set for the cocktail assay

CYP3A4, sequence (P08684 whole entry): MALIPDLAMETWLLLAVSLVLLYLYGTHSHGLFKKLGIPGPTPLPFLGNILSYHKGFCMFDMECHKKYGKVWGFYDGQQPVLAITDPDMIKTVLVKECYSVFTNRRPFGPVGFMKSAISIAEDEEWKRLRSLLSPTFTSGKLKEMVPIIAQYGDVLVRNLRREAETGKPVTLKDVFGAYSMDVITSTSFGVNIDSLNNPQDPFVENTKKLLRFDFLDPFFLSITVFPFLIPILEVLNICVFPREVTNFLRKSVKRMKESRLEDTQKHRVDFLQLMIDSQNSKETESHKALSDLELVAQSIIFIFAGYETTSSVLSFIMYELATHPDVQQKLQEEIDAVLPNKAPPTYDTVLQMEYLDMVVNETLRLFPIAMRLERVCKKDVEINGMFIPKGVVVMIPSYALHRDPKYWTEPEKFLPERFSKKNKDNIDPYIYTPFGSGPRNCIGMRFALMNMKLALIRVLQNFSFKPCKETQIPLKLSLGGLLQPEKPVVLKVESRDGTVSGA
T1 sequence (P33261 whole entry): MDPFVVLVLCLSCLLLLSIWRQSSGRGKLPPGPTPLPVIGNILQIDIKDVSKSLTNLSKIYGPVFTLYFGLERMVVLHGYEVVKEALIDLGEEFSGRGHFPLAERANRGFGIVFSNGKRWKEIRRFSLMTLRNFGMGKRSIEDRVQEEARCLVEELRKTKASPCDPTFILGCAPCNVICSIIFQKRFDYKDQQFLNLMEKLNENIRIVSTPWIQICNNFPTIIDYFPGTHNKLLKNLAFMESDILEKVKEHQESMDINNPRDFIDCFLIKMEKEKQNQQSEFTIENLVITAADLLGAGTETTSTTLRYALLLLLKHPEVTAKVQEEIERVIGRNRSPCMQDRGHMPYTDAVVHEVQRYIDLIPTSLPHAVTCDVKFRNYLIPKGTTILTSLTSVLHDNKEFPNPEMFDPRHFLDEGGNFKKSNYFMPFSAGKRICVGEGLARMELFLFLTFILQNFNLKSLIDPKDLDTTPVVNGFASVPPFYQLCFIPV

Row | IC50 [7] [µM] | SMILES | reduction of metabolite formation ([1]; 0.1% DMSO) | activity loss ([1]; 0.5% DMSO (v/v)) [%] | activity loss ([1]; 1% DMSO (v/v)) [%] | reduction of metabolite formation ([2]; 0.1% DMSO) | activity loss ([2]; 0.5% DMSO (v/v)) [%] | CYP activity reduced by [2, 8] [%] | activity loss ([2]; 1% DMSO (v/v)) [%] | reduction of metabolite formation ([3]; 0.1% DMSO) | CYP activity reduced by [3, 8] [%] | effect of DMSO on CYP activity ([3]; DMSO up to 1%) | reduction of metabolite formation ([4]; 0.1% DMSO) | CYP activity reduced by [4, 8] [%] | activity loss ([4]; 1% DMSO (v/v), percent decrease of metabolite formation) [%] | reduction of metabolite formation ([5]; 0.1% DMSO) | CYP activity reduced by [5, 8] [%] | effect of DMSO on CYP activity ([5]; DMSO up to 1%) | IC50 ([6]; read-out: reported IC50) [µM] | Ki ([6]; read-out: reported Ki) [µM]
1 | – | C[S+](C)[O-] [DMSO] | no significant reduction | 24.4 | 52.7 | no significant reduction | 44.8 | 44 | 55.0 | no significant reduction | 11 | not significantly affected | no significant reduction | 12 | 27.8 | no significant reduction | 8 | not significantly affected | – | –
2 | 7.19 | C=C(C)[C@@H]1CCC2=CC(=O)C[C@@H](C)[C@]2(C)C1 [Nootkatone] | – | – | – | – | – | – | – | – | – | – | – | – | – | – | – | – | 9.56 | 0.5

— article PMC5761213 (Journal of Pharmaceutical Analysis, 2014)
